Measured values from US9289430B2, “Compounds and methods for inhibiting phosphate transport” (Ardelyx, Inc., priority 2010, dated 2016).

Legend:
human NaP2b (SLC34A2) = biological target: T1, human NaP2b (SLC34A2) (Homo sapiens, UniProt O95436); test: NaP2b-mediated Pi transport: 33P phosphate uptake into transfected HEK293 cells; format: cell-based; settings: human protein with threonine inserted after residue 37 and N39D, 100 uM KH2PO4, read-out: pIC50 range for human Nap2b (converted)
T1 construct: host or cells: HEK293
T1 sequence (O95436 1-690): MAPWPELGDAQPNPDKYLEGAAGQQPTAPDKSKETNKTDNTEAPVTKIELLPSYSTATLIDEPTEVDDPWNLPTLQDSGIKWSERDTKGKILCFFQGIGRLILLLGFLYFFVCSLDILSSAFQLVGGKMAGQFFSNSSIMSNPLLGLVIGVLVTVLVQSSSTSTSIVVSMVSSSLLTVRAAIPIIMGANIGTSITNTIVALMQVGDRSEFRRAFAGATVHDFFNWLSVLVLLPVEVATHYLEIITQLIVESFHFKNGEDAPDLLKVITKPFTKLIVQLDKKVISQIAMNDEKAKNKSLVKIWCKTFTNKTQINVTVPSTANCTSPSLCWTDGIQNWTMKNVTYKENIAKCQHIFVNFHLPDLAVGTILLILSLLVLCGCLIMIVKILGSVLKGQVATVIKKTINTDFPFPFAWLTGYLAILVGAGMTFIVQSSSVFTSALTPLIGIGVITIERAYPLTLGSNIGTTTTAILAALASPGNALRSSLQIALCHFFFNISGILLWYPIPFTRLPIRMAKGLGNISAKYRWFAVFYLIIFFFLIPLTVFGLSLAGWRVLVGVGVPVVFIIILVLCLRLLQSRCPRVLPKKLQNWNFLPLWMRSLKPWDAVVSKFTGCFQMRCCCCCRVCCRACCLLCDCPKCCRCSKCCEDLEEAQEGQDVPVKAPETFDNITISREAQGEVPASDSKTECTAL
Protocol: (§1) Materials. HEK293 cells were obtained from the American Type Culture collection and propagated per their instructions. Expression clones for rat and human NaP2b (SLC34A2) were obtained from Open Biosystems (Catalog numbers MRN1768-9510282, and MHS1010-99823026, respectively). The sequence of the human protein was mutated to insert a threonine after residue 37, and to introduce a N39D mutation.
(§2) Inhibition of Pi Transport. The rate of phosphate (Pi) uptake into HEK293 cells was measured using a modification of the method described by Mohrmann et al. (Mohrmann, I., Mohrmann, M., Biber, J., and Murer, H. (1986) Am. J. Phys. 250(3 Pt 1):G323-30.) Transfected HEK293 cells were treated with a pharmacological agent to minimize endogenous PiT-mediated phosphate transport activity, such that the only remaining sodium-dependent phosphate transport activity is that which was bestowed by introduction of the NaP2b genes.
(§3) Cells were seeded into 96-well plates at 25,000 cells/well and cultured overnight. Lipofectamine 2000 (Invitrogen) was used to introduce the NaP2b cDNA, and the cells were allowed to approach confluence during a second overnight incubation. […] Cells were then overlayed with either choline uptake buffer or sodium uptake buffer (14 mM Tris, 137 mM sodium chloride, 5.4 mM KCl, 2.8 mM CaCl2, 1.2 mM MgSO4, 100 uM KH2PO4, PiT-silencing agent, 1 mg/mL Bovine Serum Albumin, pH 7.4) containing 6-9 uCi/mL ^33P orthophosphoric acid (Perkin Elmer) and test compound. Each compound was tested at twelve concentrations ranging from 0.1 nM to 30 uM. Assays were run in duplicate.
(§4) After incubation for 3-30 minutes at room temperature, assay mixtures were removed, and the cells were washed twice with ice cold stop solution (137 mM sodium chloride, 14 mM Tris, pH 7.4). Cells were lysed by addition of 20 μL 0.1% Tween 80 followed by 100 μL scintillation fluid, and counted using a TopCount (Perkin Elmer).
(§5) pIC50 (the negative log of the IC50) values of the test compounds were calculated using GraphPad Prism.

rat NaP2b (SLC34A2) = biological target: T2, rat NaP2b (SLC34A2) (Rattus norvegicus, UniProt Q9JJ09); test: as above; format: cell-based; settings: 100 uM KH2PO4, PiT-silencing agent, read-out: pIC50 range for rat Nap2b (converted)
T2 construct: host or cells: HEK293
T2 sequence (Q9JJ09 1-695): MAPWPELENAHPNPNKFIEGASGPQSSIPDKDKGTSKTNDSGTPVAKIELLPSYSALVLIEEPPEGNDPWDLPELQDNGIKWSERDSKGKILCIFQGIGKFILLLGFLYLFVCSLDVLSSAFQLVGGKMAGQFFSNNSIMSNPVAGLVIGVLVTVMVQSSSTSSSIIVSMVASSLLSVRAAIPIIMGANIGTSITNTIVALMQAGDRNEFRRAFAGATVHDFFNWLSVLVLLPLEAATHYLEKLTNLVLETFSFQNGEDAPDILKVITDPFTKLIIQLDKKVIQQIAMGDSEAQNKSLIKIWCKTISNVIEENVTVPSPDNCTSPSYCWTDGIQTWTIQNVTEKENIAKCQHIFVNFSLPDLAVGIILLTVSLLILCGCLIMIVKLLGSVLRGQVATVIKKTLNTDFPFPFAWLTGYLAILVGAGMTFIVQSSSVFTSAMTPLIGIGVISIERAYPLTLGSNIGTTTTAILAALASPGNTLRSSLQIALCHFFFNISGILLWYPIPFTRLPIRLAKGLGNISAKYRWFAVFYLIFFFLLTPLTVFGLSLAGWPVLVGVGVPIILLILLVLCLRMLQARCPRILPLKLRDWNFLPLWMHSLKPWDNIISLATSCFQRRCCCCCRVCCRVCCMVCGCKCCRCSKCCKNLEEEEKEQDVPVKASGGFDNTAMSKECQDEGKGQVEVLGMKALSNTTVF
Protocol: as §1, §2, §3, §4, §5

[1] = test system: Uptake of Phosphorus from the Intestine; test: In vivo co-dosing in chow, urinary P output relative to P consumed; set-up: species or system Sprague-Dawley rats; settings: rats, compound in chow, nominal 100 mg/kg/day (mean actual 104-105 mg/kg/day), mean of 24-96 h, vs control
Text: Male, 7-week-old Sprague-Dawley rats (Charles-River laboratories international, Hollister, Calif.) were allowed to acclimate for a minimum of 3 days. The experiment was initiated by switching animals to a synthetic diet (0.6% phosphorus and 0.6% calcium, Harlan Teklad TD.84122) for four days. After this time, the animals were placed into metabolic cages for daily monitoring of food and water consumption, as well as urine and fecal collections. Test compounds were incorporated into the powdered diet listed above containing 3% chocolate flavoring (w/w, BioSery #7345) at 1.3 mg test compound per gram of diet to achieve an average daily nominal dose of 100 mg/kg/day. The actual dose received by each animal was later determined by measuring prepared diet consumption and body weight. Urine samples were collected in three daily periods from 24-48, 48-72, and 72-96 hours of drug dosing. […] Phosphorous levels in the urine were determined by anion exchange chromatography using a Dionex ICS-3000 ion chromatography system. […] Elution of urine phosphate ions was monitored via conductivity detector and reported as ppm relative to a standard ion solution containing phosphate. Daily urinary P output relative to the P consumed in the prepared diet for each animal was calculated. […] The differences between the means of control and treated groups were evaluated by t tests. […]

[2] = Stability in simulated gastric and intestinal fluid; format: in vitro ADME; settings: 6 hr, 1-20 μM
Protocol: Test compounds were incubated at 1-20 μM in simulated gastric fluid (SGF; standard USP solution with 3 mg/mL pepsin) or simulated intestinal fluid (SIF; standard USP solution with 3 mg/mL pancreatin) for 3 hr or 6 hr. HPLC-UV or HPLC-MS were used to determine test compound levels using peak area %. Results (Table 5) were reported as the percentage of test compound remaining after incubation in a given condition relative to test compound present at t=0 in the same condition.

[3] = Fecal recovery of orally administered compounds; format: in vivo, Sprague-Dawley rats; settings: rats, oral gavage, nominal 10 mg/kg (actual 7.6-11 mg/kg), feces 0-48 hr after dosing
Protocol: Quantitative determination of test compound level in feces after oral gavage was performed using the same set of animals used to determine test compound concentration in plasma (Example 30). The animals were kept in metabolic cages and feces were collected from the time of dosing until 48 hr after dosing. Upon collection, feces was dried by lyophilization and ground to a visually homogenous powder. Duplicate samples of ground feces from each individual animal were weighed out and extracted using organic solvent. Extracted samples were then diluted into mobile phase and test compound levels were quantitatively determined by LC-MS/MS analysis as described in “Example 30” except that the standard curve was prepared in a feces matrix. Extraction conditions were not optimized for individual compounds, and thus may represent a minimal level of recovery.

- IC50 (human NaP2b (SLC34A2)): < 1000 nM
- IC50 (rat NaP2b (SLC34A2)): 1000 to 7940 nM
- % remaining, SGF ([2]; simulated gastric fluid with 3 mg/mL pepsin): 100%
- % remaining, SIF ([2]; simulated intestinal fluid with 3 mg/mL pancreatin): 97%
- % recovered in feces [3]: 17%
SMILES: CN(CCOCCOCCOCCC(=O)O)C(=O)c1cccc(C(=O)Nc2ccc(N3CCCCC3)cc2C(=O)Nc2ccn(-c3cccc(C(F)(F)F)c3)n2)c1 [Example 15, 2-Methyl-1-oxo-1-(3-((4-(piperidin-1-yl)-2-((1-(3-(trifluoromethyl)phenyl)-1H-pyrazol-3-yl)carbamoyl)phenyl)carbamoyl)phenyl)-5,8,11-trioxa-2-azatetradecan-14-oic acid]
- Mean % inhibition Urine Pout/P consumed [1]: 9%
